Laboratory results from paper PMC8421423, “Cellular model system to dissect the isoform-selectivity of Akt inhibitors” (Nature Communications, 2021).
Values joined by “and” are separate entries in the source; they are usually repeats but may differ in a detail not shown here. Equal entries are not always repeated. Where two headings read alike, the source gives them in different places.

Key:
[1] = tested on: pAkt2; experiment: Western blot analysis, PANC1 cells; assay type: cell-based, human; settings: PANC1, 24-h treatment
Description: Cells were seeded into six-well tissue culture plates (Sarstedt) (BaF3 myr-Akt1/2/3: 10^6 cells/well, PANC1: 250.000 cells/well). […] Cell lysis was initiated by addition of 100 μL RIPA buffer (Cell Signaling Technology) per well supplemented with phosphatase and protease inhibitor cocktails (Sigma) followed by incubation on ice for 20 min. Cells were then harvested by scraping (PANC1) or centrifugation (BaF3). Whole cell lysates were cleared by centrifugation at 14,000×g/4 °C for 10 min and transferred into fresh, pre-cooled microcentrifuge tubes. Protein concentrations were determined using the Pierce BCA protein assay (Thermo) as per manufacturer’s instructions. Equal amounts of protein were separated by SDS-PAGE and transferred to Immobilon-FL PVDF membranes (Merck Millipore) using Pierce™ 1-step transfer buffer (Thermo) and the Pierce™ Power Blotter (Thermo). Membranes were washed for 5 min with ddH2O, blocked with Intercept®Blocking Buffer TBS (Li-Cor) for 1 h at room temperature, and then incubated with primary antibodies diluted in Intercept®Blocking Buffer TBS overnight at 4 °C with gentle agitation. On the next day, the membranes were washed three times with TBS-T (50 mM Tris, 150 mM NaCl, 0.05 % Tween 20, pH 7.4) for 5 min before being incubated with secondary antibodies diluted in Intercept®Blocking Buffer TBS for 1 h at room temperature with gentle agitation. Finally, the membranes were washed three times for 5 min with TBS-T and then scanned using an Odyssey®CLx imaging system (Li-Cor).

[2] = molecular target: T1, Akt2 (Homo sapiens, UniProt P31751); experiment: Cellular thermal shift assay (CETSA) in PANC1 cells; assay type: cell-based; parameters: purchased Thermo Fisher Scientific #PV3184
T1 sequence (P31751 whole entry): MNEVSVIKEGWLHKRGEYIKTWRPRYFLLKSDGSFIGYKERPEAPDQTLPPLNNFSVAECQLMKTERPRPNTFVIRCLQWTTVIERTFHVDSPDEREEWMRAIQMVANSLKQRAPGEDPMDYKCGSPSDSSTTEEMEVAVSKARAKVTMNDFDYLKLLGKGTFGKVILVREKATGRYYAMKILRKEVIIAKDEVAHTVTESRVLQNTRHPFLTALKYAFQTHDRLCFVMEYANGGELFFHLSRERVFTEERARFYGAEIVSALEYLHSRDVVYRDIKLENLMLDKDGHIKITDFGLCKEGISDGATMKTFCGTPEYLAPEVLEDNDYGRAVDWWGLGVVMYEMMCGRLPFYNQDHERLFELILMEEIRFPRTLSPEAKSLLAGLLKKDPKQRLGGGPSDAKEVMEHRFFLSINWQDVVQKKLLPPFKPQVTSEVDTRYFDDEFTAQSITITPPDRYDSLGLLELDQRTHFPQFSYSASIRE
Description: (§1) Cells were seeded into 100 mm tissue culture plates (Sarstedt) (PANC1: 10^6 cells). After 24 h incubation, cells were treated with 1 µM of inhibitors or DMSO and were incubated for 4.5 h. Cells were washed twice with ice-cold PBS and then suspended in 1 mL PBS. Cells were collected and separated into equal volumes (100 µL). The aliquots were treated individually with different temperatures for 3 min, followed by a 3 min incubation at room temperature. Cell lysis was initiated by adding 100 µL RIPA buffer and 2 freeze-thaw cycles in liquid nitrogen. The lysates were centrifuged at 21,130×g for 20 min at room temperature. The supernatants were transferred into fresh, pre-cooled microcentrifuge tubes, and analyzed by western blot analysis as described above.

[3] = molecular target: T2, Akt3 (Homo sapiens, UniProt Q9Y243); experiment: as above; assay type: cell-based; parameters: purchased ProQinase #1578-0000-1
T2 sequence (Q9Y243 whole entry): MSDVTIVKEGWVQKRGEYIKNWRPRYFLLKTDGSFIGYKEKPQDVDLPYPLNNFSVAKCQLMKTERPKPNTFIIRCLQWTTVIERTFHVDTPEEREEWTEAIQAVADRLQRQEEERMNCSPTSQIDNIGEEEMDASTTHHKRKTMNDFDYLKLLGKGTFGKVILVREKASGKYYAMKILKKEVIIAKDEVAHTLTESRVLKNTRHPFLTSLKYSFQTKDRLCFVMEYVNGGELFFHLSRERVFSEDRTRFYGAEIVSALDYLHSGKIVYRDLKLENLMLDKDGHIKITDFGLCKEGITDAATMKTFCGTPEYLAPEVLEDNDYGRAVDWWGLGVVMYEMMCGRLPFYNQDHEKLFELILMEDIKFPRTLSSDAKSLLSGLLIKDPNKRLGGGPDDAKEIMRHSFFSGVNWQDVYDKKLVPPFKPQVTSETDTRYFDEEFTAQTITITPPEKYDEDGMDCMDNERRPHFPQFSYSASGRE
Description: as §1

[4] = molecular target: T3, Akt1 (Homo sapiens, UniProt P31749); experiment: as above; assay type: cell-based; parameters: purchased ProQinase #1379-0000-2
T3 sequence (P31749 whole entry): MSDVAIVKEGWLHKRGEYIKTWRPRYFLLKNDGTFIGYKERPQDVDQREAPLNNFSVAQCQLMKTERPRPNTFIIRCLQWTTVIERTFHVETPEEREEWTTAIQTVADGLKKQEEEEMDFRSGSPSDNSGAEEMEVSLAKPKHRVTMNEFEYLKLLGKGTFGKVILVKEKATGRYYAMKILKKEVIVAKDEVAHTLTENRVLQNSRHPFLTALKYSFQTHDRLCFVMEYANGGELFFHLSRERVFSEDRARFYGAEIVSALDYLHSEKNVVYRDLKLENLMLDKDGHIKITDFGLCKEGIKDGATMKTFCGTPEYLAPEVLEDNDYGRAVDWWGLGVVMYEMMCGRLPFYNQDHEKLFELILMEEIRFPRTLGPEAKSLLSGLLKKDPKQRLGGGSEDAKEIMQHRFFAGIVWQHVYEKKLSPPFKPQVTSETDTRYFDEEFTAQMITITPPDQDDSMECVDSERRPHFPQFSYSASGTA
Description: as §1

[5] = tested on: Ba/F3^myr-Akt1 cells; experiment: CellTiter-Glo cell viability assay; settings: for cell viability: CTG
[6] = molecular target: T1, Akt2; experiment: STK HTRF KinEASE activity-based assay (IC50)
[7] = tested on: Ba/F3^myr-Akt3 cells; experiment: CellTiter-Glo cell viability assay; settings: for cell viability: CTG
[8] = tested on: Ba/F3^myr-Akt2 cells; experiment: CellTiter-Glo cell viability assay; settings: for cell viability: CTG
[9] = CellTiter-Glo cell viability assay; assay type: cell-based, murine; settings: mouse, parental Ba/F3 cells, CTG, parental, single replicates
[10] = tested on: parental Ba/F3 cells; experiment: CellTiter-Glo cell viability assay; assay type: cell-based, murine; settings: for cell viability: CTG, parental
[11] = molecular target: T3, Akt1; experiment: STK HTRF KinEASE activity-based assay (IC50)
[12] = molecular target: T2, Akt3; experiment: STK HTRF KinEASE activity-based assay (IC50)
Description: The biochemical half maximal inhibitory concentrations (IC50) were determined with the STK HTRF KinEASE assay (Cisbio) according to the manufactor’s instructions. Briefly: 5 µL Kinase solution and 2.5 µL inhibitor solution (8% DMSO in HTRF buffer) were incubated for 1 h before the reaction was started by addition of 2.5 µL starting solution containing ATP and substrate peptide. […] After reaction completion (Akt1: 60 min, Akt2: 20 min, Akt3: 15 min), 10 µL of stop solution were added. […] The quotient of both intensities were recorded at eight different inhibitor concentrations and data fit to a Hill 4-parameter equation with Quattro software suite (Quattro Research GmbH, Martinsried, Germany). Each reaction was performed in duplicates and at least three independent determinations of each IC50 were made.

[13] = CETSA PANC1, 1 µM, temperature 39.9
[14] = CETSA PANC1, 1 µM, temperature 43.5
[15] = CETSA PANC1, 1 µM, temperature 48.4
[16] = CETSA PANC1, 1 µM, temperature 53.8
[17] = CETSA PANC1, 1 µM, temperature 58.1
[18] = CETSA PANC1, 1 µM, temperature 61.4
[19] = CETSA PANC1, 1 µM, temperature 65.6
[20] = CETSA PANC1, 1 µM, temperature 70.9
[21] = CETSA PANC1, 1 µM, temperature 76
[22] = CETSA PANC1, 1 µM, temperature 79.9
[23] = CETSA PANC1, 2.5 µM, temperature 39.9
[24] = CETSA PANC1, 2.5 µM, temperature 43.5
[25] = CETSA PANC1, 2.5 µM, temperature 48.4
[26] = CETSA PANC1, 2.5 µM, temperature 53.8
[27] = CETSA PANC1, 2.5 µM, temperature 58.1
[28] = CETSA PANC1, 2.5 µM, temperature 61.4
[29] = CETSA PANC1, 2.5 µM, temperature 65.6
[30] = CETSA PANC1, 2.5 µM, temperature 70.9
[31] = CETSA PANC1, 2.5 µM, temperature 76
[32] = CETSA PANC1, 2.5 µM, temperature 79.9
[33] = cell viability assay Ba/F3 myr-Akt cells, log units

In the case of C=CC(=O)Nc1ccc2[nH]c(=O)n(C3CCN(Cc4ccc(-c5ncc(Cc6ccc(N)nc6)cc5-c5ccccc5)cc4)CC3)c2c1 [compound 20], the “pAkt2 level (immunoblot)” value [1] is reported as “moderate downregulation of pAkt2”, the tAkt2 % [2, 13] is reported as 100.00% and the tAkt2 % [2, 14] is reported as 81.90%. For the same molecule, the tAkt2 % [2, 15] was 58.55%, the tAkt2 % [2, 16] was 58.55% and the tAkt2 % [2, 17] was 42.44%. For the same molecule, the tAkt2 % [2, 18] was 52.13%, the tAkt2 % [2, 19] was 35.55% and the tAkt2 % [2, 20] was 6.07%. It also gave a tAkt2 % [2, 21] of 11.50%, a tAkt2 % [2, 22] of 0.00% and a tAkt2 % [2, 23] of 100.00%. For the same molecule, the tAkt2 % [2, 24] was 97.05%, the tAkt2 % [2, 25] was 85.02% and the tAkt2 % [2, 26] was 75.94%. The tAkt2 % [2, 27] was 76.89%, the tAkt2 % [2, 28] was 28.89% and the tAkt2 % [2, 29] was 35.73%. It also gave a tAkt2 % [2, 30] of 24.29%, a tAkt2 % [2, 31] of 12.62% and a tAkt2 % [2, 32] of 0.00%. The “thermal stabilization of Akt2 (CETSA, in words)” value ([2]; PANC1, 2.5 µM) was “significant stabilization of Akt2 and Akt3”, the tAkt3 % [3, 13] was 100.00% and the tAkt3 % [3, 14] was 71.95%. It also gave a tAkt3 % [3, 15] of 46.73%, a tAkt3 % [3, 16] of 49.56% and a tAkt3 % [3, 17] of 48.14%. The tAkt3 % [3, 18] was 35.11%, the tAkt3 % [3, 19] was 25.19% and the tAkt3 % [3, 20] was 2.44%. For the same molecule, the tAkt3 % [3, 21] was 2.83%, the tAkt3 % [3, 22] was 0.00% and the tAkt3 % [3, 23] was 100.00%. The tAkt3 % [3, 24] was 103.86%, the tAkt3 % [3, 25] was 83.57% and the tAkt3 % [3, 26] was 72.46%. For the same molecule, the tAkt3 % [3, 27] was 73.91%, the tAkt3 % [3, 28] was 50.24% and the tAkt3 % [3, 29] was 22.85%. It also gave a tAkt3 % [3, 30] of 8.02%, a tAkt3 % [3, 31] of 2.05% and a tAkt3 % [3, 32] of 0.00%. The “thermal stabilization of Akt3 (CETSA, in words)” value ([3]; PANC1, 1 µM) was “slight stabilization of Akt3”, the “thermal stabilization of Akt3 (CETSA, in words)” value ([3]; PANC1, 2.5 µM) was “significant stabilization of Akt2 and Akt3” and the tAkt1 % [4, 13] was 100.00%. It also gave a tAkt1 % [4, 14] of 45.86%, a tAkt1 % [4, 15] of 43.98% and a tAkt1 % [4, 16] of 34.21%. For the same molecule, the tAkt1 % [4, 17] was 23.05%, the tAkt1 % [4, 18] was 19.70% and the tAkt1 % [4, 19] was 13.05%. The tAkt1 % [4, 20] was 3.12%, the tAkt1 % [4, 21] was 1.54% and the tAkt1 % [4, 22] was 0.00%. It also gave a tAkt1 % [4, 23] of 100.00%, a tAkt1 % [4, 24] of 55.35% and a tAkt1 % [4, 25] of 36.29%. For the same molecule, the tAkt1 % [4, 26] was 40.13%, the tAkt1 % [4, 27] was 29.31% and the tAkt1 % [4, 28] was 31.38%. It also gave a tAkt1 % [4, 29] of 3.90%, a tAkt1 % [4, 30] of -1.89% and a tAkt1 % [4, 31] of 0.94%. The tAkt1 % [4, 32] was 0.00%, the cell viability ([5]; myr-Akt1, 0.1 nM, single replicates, 0.0001 µM) was 108.0 % of control and 90.0 % of control and the cell viability ([5]; myr-Akt1, 5000 nM, single replicates, 5 µM) was 85.6 % of control and 91.8 % of control. The EC50 ([5]; Mus musculus, read-out: CTG BaF3myr-Akt1, Mean, mean of replicates) was 9480 nM, the EC50 ([5]; Mus musculus, read-out: CTG BaF3myr-Akt1, individual determinations, single replicates) was 10000 nM and the viability at 0.0001 µM ([5]; Mus musculus, read-out: cell viability, CTG, myr-Akt1, 0.1 nM, single replicates) was 102%. The viability at 5 µM ([5]; Mus musculus, read-out: cell viability, CTG, myr-Akt1, 5000 nM, single replicates) was 73.6%, the “Log ratio EC50 [Akt] / EC50 [Akt], Akt1 / Akt2” value [5, 33] was 0.27 and the EC50 ([5]; read-out: CTG BaF3myr-Akt1, individual determinations, single replicates) was 9200 nM and 9240 nM. For the same molecule, the IC50 ([6]; HTRF IC50 Akt2, Mean, mean of replicates) was 175 nM, the IC50 ([6]; HTRF IC50 Akt2, individual determinations, single replicates) was 177 nM and 317 nM and 174 nM and the IC50 ([6]; IC50 Akt2, HTRF, ATP at KM, 1 h preincubation) was 175 ± 2 nM. For the same molecule, the cell viability ([7]; myr-Akt3, 0.1 nM, single replicates, 0.0001 µM) was 100.1 % of control and 113.6 % of control and 88.4 % of control, the cell viability ([7]; myr-Akt3, 5000 nM, single replicates, 5 µM) was 49.5 % of control and 56.5 % of control and 73.0 % of control and the EC50 ([7]; Mus musculus, read-out: CTG BaF3myr-Akt3, Mean, mean of replicates) was 5050 nM. The EC50 ([7]; Mus musculus, read-out: CTG BaF3myr-Akt3, individual determinations, single replicates) was 5100 nM, the “Log ratio EC50 [Akt] / EC50 [Akt], Akt3 / Akt2” value [7, 33] was -0.09 and the EC50 ([7]; read-out: CTG BaF3myr-Akt3, individual determinations, single replicates) was 4070 nM and 5520 nM. For the same molecule, the cell viability ([8]; myr-Akt2, 0.1 nM, single replicates, 0.0001 µM) was 92.3 % of control and 98.1 % of control, the cell viability ([8]; myr-Akt2, 5000 nM, single replicates, 5 µM) was 26.9 % of control and 44.2 % of control and the EC50 ([8]; Mus musculus, read-out: CTG BaF3myr-Akt2, Mean, mean of replicates) was 4090 nM. The EC50 ([8]; Mus musculus, read-out: CTG BaF3myr-Akt2, individual determinations, single replicates) was 2950 nM, the viability at 0.0001 µM ([8]; Mus musculus, read-out: cell viability, CTG, myr-Akt2, 0.1 nM, single replicates) was 105% and the viability at 5 µM ([8]; Mus musculus, read-out: cell viability, CTG, myr-Akt2, 5000 nM, single replicates) was 25.6%. For the same molecule, the EC50 ([8]; read-out: CTG BaF3myr-Akt2, individual determinations, single replicates) was 4700 nM and 4620 nM, the viability at 3 days, 0.0001 µM ([9]; 0.1 nM, read-out: cell viability) was 104% and the viability at 3 days, 5 µM ([9]; 5000 nM) was 83.7%. For the same molecule, the cell viability ([10]; 0.1 nM, single replicates, 0.0001 µM) was 98.4 % of control and 93.0 % of control, the cell viability ([10]; 5000 nM, single replicates, 5 µM) was 87.1 % of control and 85.4 % of control and the EC50 ([10]; Mus musculus, BaF3, parental cells, mean of replicates, read-out: CTG BaF3, Mean) was 12100 nM. For the same molecule, the EC50 ([10]; Mus musculus, BaF3, parental cells, single replicates, read-out: CTG BaF3, individual determinations) was 9750 nM, the EC50 ([10]; parental cells, single replicates, read-out: CTG BaF3, individual determinations) was 9720 nM and 18600 nM and the IC50 ([11]; HTRF IC50 Akt1, Mean, mean of replicates) was 1630 nM. The IC50 ([11]; HTRF IC50 Akt1, individual determinations, single replicates) was 1630 nM and 1810 nM and 1450 nM, the IC50 ([11]; IC50 Akt1, HTRF, ATP at KM, 1 h preincubation) was 1630 ± 148 nM and the “Log ratio IC50 [Akt] / IC50 [Akt], Akt1 / Akt2” value ([11]; biochemical activity based assay, log units) was 0.97. For the same molecule, the IC50 ([12]; HTRF IC50 Akt3, individual determinations, single replicates) was 144 nM and 176 nM and 240 nM and 188 nM and the IC50 ([12]; IC50 Akt3, HTRF, ATP at KM, 1 h preincubation) was 187 ± 40 nM.
